In publication PMC8623418, “Novel Multitarget Hydroxamic Acids with a Natural Origin CAP Group against Alzheimer’s Disease: Synthesis, Docking and Biological Evaluation” (Pharmaceutics, 2021):

How the values were obtained:
[1] = tested on: T1, β-amyloid 1–42; assay: β-amyloid 1–42 aggregation, Thioflavin T fluorescence; type: biochemical; settings: 100 μM, 72 h incubation
T1 construct: fragments Aβ1–40 and Aβ1–42
Description: (§1) The effect of the studied compounds on the aggregation of β-amyloid (1–40/1–42) was analyzed using the method of recording Thioflavin T fluorescence (10 µM) for 72 h at 37 °C. The fluorescence signal was measured using a multifunctional flatbed analyzer, the Cytation ™ 3 (BioTek Instruments, Inc., Winooski, VT, USA), at λex = 450 nm, λem = 480 nm.
(§2) The effect of hydroxamic acids on the stage of aggregation of the pathological β-amyloid peptide was investigated for 72 h using two model systems—fragments Aβ1–40 and Aβ1–42. The fluorophore Thioflavin T was used as an indicator of the ongoing fibrillation process, the interaction of which with proteins in the state of amyloid fibrils leads to an increase in the fluorescence signal.

[2] = tested on: HEK 293 cells; assay: MTT cell viability, HEK 293; type: cell-based; settings: Homo sapiens, HEK293; HEK-293, MTT test
Description: (§3) The effect of the hydroxamic acids on the viability of cells obtained from human embryonic kidneys, HEK 293, as well as the native form of human neuroblastoma, SH-SY5Y, was evaluated in the MTT test. Using a multifunctional flatbed analyzer, Cytation™3 (BioTek Instruments, Inc., Winooski, VT, USA), the optical density was determined at a wavelength of 530 nm. Based on the dose-dependent curves, the concentration values leading to 50% inhibition of cell population growth (IC50) were calculated.
(§4) Due to the fact that most compounds of the class of hydroxamic acids have high cytotoxic activity and are mainly used as anticancer drugs, their use as neuroprotective drugs is limited. Since the goal of our work was to search for agents for the pharmacological correction of neurodegenerative diseases, a necessary part of the biological activity study of the synthesized hydroxamic acids was to determine their effect on the survival of cell cultures. In our work, we used neuron-like neuroblastoma cells SH-SY5Y and a healthy cell line isolated from the human embryonic kidney, HEK 293.

[3] = tested on: β-amyloid 1–40; assay: β-amyloid 1–40 aggregation, Thioflavin T fluorescence; type: biochemical; settings: 100 μM, 72 h incubation
Description: as §1, §2

[4] = tested on: SH-SY5Y cells; assay: MTT cell viability, SH-SY5Y; type: cell-based; settings: Homo sapiens, MTT test
Description: as §3, §4

[5] = DPPH test of antiradical activity; settings: substances at 100 μM, mean ± SEM
Description: The DPPH test was used to examine antiradical activity based on the ability of a stable chromogen radical of 2,2-diphenyl-1-picrylhydrazyl (DPPH) to remove a hydrogen atom, which is accompanied by a change in the absorption maximum in the electronic absorption spectra. The amount of reduced DPPH was measured using a Cytation ™ 3 multifunctional plate analyzer (BioTek Instruments, Inc., Winooski, VT, USA) at a wavelength of 517 nm.
The antiradical activity of the test compounds was evaluated by the DPPH test, based on the ability of antioxidants to donate an electron to the stable chromogen radical DPPH, converting it into a nonradical form and neutralizing its activity. […] The chromogenic free radical DPPH used in this test has a large size, and substances even with a similar chemical structure may have different antiradical properties due to spatially difficult access.

[6] = biological target: T2, HDAC6 (Homo sapiens, UniProt Q9UBN7); assay: HDAC6 enzyme activity, FLUOR DE LYS fluorometric kit; type: biochemical; settings: mean ± SEM; read-out: IC50 HDAC6 Inhibitory Activity
T2 construct: purchased Enzo Life Sciences (Enzo Biochem, New York, NY, USA)
T2 sequence (Q9UBN7 1-1215): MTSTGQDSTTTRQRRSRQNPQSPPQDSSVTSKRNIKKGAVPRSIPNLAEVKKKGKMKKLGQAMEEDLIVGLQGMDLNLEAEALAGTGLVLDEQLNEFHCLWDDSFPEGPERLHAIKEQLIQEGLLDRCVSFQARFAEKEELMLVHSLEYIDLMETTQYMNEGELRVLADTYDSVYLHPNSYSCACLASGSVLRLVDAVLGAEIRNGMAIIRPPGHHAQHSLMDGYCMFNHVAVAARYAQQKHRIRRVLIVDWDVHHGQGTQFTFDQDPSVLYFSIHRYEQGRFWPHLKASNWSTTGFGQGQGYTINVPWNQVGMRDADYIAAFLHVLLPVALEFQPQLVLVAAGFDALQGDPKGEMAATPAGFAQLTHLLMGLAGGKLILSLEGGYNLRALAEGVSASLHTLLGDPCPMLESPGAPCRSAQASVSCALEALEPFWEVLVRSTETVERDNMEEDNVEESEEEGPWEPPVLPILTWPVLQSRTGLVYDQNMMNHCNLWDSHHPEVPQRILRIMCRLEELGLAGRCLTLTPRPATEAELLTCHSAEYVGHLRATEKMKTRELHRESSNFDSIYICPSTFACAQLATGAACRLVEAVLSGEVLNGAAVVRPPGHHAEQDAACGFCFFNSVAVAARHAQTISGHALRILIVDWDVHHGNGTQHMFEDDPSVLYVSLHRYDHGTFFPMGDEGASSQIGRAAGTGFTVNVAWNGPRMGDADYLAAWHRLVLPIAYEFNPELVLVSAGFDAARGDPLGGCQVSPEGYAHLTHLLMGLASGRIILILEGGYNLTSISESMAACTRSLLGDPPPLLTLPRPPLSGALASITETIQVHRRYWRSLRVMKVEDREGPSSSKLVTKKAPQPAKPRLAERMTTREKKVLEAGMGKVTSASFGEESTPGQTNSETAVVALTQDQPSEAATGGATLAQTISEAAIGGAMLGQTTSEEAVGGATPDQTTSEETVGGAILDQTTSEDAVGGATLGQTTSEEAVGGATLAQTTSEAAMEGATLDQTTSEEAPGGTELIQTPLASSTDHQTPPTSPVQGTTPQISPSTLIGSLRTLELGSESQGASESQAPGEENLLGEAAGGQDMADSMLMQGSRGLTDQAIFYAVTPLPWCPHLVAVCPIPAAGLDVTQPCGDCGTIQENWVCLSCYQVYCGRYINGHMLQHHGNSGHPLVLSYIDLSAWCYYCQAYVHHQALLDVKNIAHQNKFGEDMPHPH

[7] = tested on: lipid peroxidation (LPO) of rat brain homogenate; assay: Lipid peroxidation (LPO) of rat brain homogenate, TBARS test; type: biochemical; settings: substances at 100 μM, mean ± SEM; for % of Activity, Inhibition of LPO, Fe (II): Fe (II)-induced; for % of Activity, Inhibition of LPO, t-BHP: t-BHP-induced
Description: To obtain the brain homogenate, rats preliminarily anesthetized with CO2 were decapitated with a guillotine. The brain was homogenized in a buffer containing KCl (120 mM) and HEPES (20 mM), pH = 7.4 at 4 °C, and centrifuged at 1500 rpm to obtain a supernatant. The protein was quantified according to the standard microbiuret method.
To investigate the effect of the compounds on lipid peroxidation (LPO) of rat brain homogenate, we used the modified version of the TBARS test, which is based on the reaction of 2-thiobarbituric acid with the end LPO product—malonic dialdehyde (MDA). The plate well, according to the experimental scheme, contained the compounds under study (100 μM), rat brain homogenate (2 mg/mL), as well as ferrous iron ions ([…]) at a concentration of 500 μM and 1.6 mM tert-butyl hydroxyperoxide as an initiator. After 30 min of incubation at 37 °C, TBARS reagent was added to all samples, incubated for 90 min at 90 °C, and centrifuged at 6000 rpm for 15 min. The optical density of the selected supernatant was measured on a Victor 3 plate reader (Perkin Elmer) at λ = 540 nm.
A rat brain homogenate preparation containing fragments of cell membranes was used as a model system to investigate the antioxidant activity of the hydroxamic acids. To initiate the process of lipid peroxidation, ferrous ions were used to trigger the Fenton reaction, during which the iron valence changes and a highly reactive hydroxyl radical is formed, and tert-butyl hydroxyperoxide as a direct source of free radicals.

melting point | IC50 [4] | IC50 [6] | SMILES | Effect on β-amyloid 1–42 aggregation [1] | IC50 [2] | Effect on β-amyloid 1–40 aggregation [3] | % of Activity, Antiradical Activity [5] | % of Activity, Inhibition of LPO, Fe (II) [7] | % of Activity, Inhibition of LPO, t-BHP [7]
133.2 °C | > 100 µM | 0.74 ± 0.01 µM | O=C(CCCCCCCC(=O)NC1C2CC3CC(C2)CC1C3)NO (stereo not drawn) [compound 16, N^1-(Adamantan-2-yl)-N^9-Hydroxynonanediamide] | noticeable fibrillation inhibition | 49.5 ± 3.43 µM | noticeable fibrillation inhibition | - (The ‘-’ mark indicates the lack of activity of the test substances (≤10%) in a particular test) | 26.41 ± 2.58% | 16.27 ± 0.42%
202.5 °C | 64.2 ± 4.1 µM | 18 ± 1.02 µM | CC1(C)[C@@H]2CCC1(C)[C@H](NC(=O)/C=C/c1ccc(C(=O)NO)cc1)C2 [compound 23, N-Hydroxy-4-((E)-3-Oxo-3-(((2R,4R)-1,7,7-Trimethylbicyclo[2.2.1]heptan-2-yl)amino)prop-1-en-1-yl)benzamide] | noticeable fibrillation inhibition | 68.3 ± 2.22 µM | noticeable fibrillation inhibition | 20.14 ± 1.28% | 32.91 ± 1.12% | 18.26 ± 4.90%
